Experiment [1] has as its system reactive oxygen species in neuroblastoma cells. As to the kind of experiment: ROS generation, H2DCFDA staining, fluorescence microscopy. It is filed as cell-based, human. The conditions noted are these: SsnB 10 μM; SH-SY5Y and other neuroblastoma lines; p<0.05. The procedure: The production of reactive oxygen species (ROS) in SsnB-treated neuroblastoma cells was detected by a cell-permeable fluorescence probe H2DCFDA (carboxy-2′,7′-dichlorodihydrofluorescein diacetate) according to the manufacturer's instructions (Invitrogen, Carlsbad, Calif.). Briefly, neuroblastoma cells were cultured in DMEM with 10% FBS in Lab-TekII chamber slides (Fisher Scientific, Pittsburg, Pa.) and treated with SsnB for 2 days (SH-SY5Y and IMR-32 cells), 3 days (NGP cell) or 4 days (SKNF-1 and SK-N-BE(2) cells). […] Cells were washed three times with HBSS, mounted with Vectashield mounting medium (Vector Laboratories), and immediately examined under Nikon-E600 fluorescence microscopy equipped with fluorescein isothiocyanate (FITC) filter. Oxidation of H2DCFDA probe occurs almost exclusively in the cytosol, and generates a fluorescence that is proportional to ROS generation in that cell. […] Cells were trypsinized, washed, and re-suspended in PBS and fluorescence intensity was monitored at excitation wavelength 485 nm and emission wavelength 530 nm with a spectramax spectrophotometer (Molecular Devices, Sunnyvale, Calif.).
To test whether SsnB-induced cell death resulted from increased level of ROS, H2DCFDA staining was performed. […] The carboxy-DCF positive cells were quantitated by imageJ software and plotted. […]

Experiment [2] relates to SH-SY5Y cells. As to the kind of experiment: Cell cycle analysis by flow cytometry (propidium iodide). It is filed as cell-based, human. Particulars: SsnB 10 μM, 2 days; control=14.33%. On the procedure: (§1) The cell cycle progression was determined by flow cytometer analysis. Neuroblastoma cells were treated with SsnB or DMSO in DMEM with 10% FBS. Cells were collected after trypsinization with trypsin-EDTA solution (Atlanta Biologicals) and washed with 1× phosphate buffered saline (PBS). Approximately 1×10^6 cells were suspended in 300 μl of ice-cold 1×PBS, fixed by adding 700 μl of chilled absolute ethanol (to make final ethanol concentration 70%) drop wise and incubated for overnight at −20° C. Cells were pelleted at 1000×rpm for 5 min at 4° C., washed with 1×PBS for 3 times and stained with propidium iodide (Sigma-Aldrich, St. Louis, Mo.) by adding 1 ml of propidium iodide staining solution (containing 20 μg/ml propidium iodide and 10 μg/ml DNase-free RNase A in 0.1% Triton X-100/PBS) for 1 h on ice in dark. Samples were subjected to fluorescence-activated cell sorting analyses utilizing Beckman Coulter flow cytometer (Beckman Coulter, Indianapolis, Ind.). A minimum of 10,000 events were analyzed in each experiment.
(§2) To test whether SsnB-induced cell growth inhibition occurs through cell cycle arrest, cell cycle distribution was analyzed by flow cytometry after DNA staining with propidium iodide.

The test system of experiment [3] is IMR-32 cells. The experiment is described as above. It counts as cell-based, human. Particulars: SsnB 10 μM, 2 days; control=19.25%. On the procedure: as §1, §2
Experiment [4] relates to SK-N-BE(2) cells. The experiment is described as above. It counts as cell-based, human. The conditions noted are these: SsnB 10 μM, 4 days; control=22.63%. The procedure:
as §1, §2

Experiment [5] in a line: ROS-generating activity in cell-free system (H2DCFDA, HRP). It counts as biochemical. The conditions noted are these: for increase of OD value vs H2DCFDA+HRP reaction: SsnB 10 μM + H2DCFDA 25 μM + HRP 5 units/ml. On the procedure:
FIG. 2D and FIG. 2E illustrate the ROS generating capacity of SsnB evaluated in a cell-free system containing H2DCFDA (25 μM), horseradish peroxidase (HRP, 5 units/ml), SsnB (10 μM) and glutathione (GSH, 0.25 or 2.5 μM) alone or in various combinations. Optical density (O.D.) at 540 nm were taken at different time points and plotted.
In a reaction system, after the removal of acetate group by cellular esterases and oxidation by reactive oxygen species, the non-fluorescent carboxy-H2DCFDA dye is oxidized to fluorescent molecule carboxy-DCF. To measure the ROS-generating activity of SsnB, the oxidation of carboxy-H2DCFDA dye was monitored in a cell-free system containing carboxy-H2DCFDA dye, horseradish peroxidase (HRP) and SsnB at 540 nm. HRP was used to supply esterase since without esterase carboxy-H2DCFDA is not sensitive to oxidant. […] After addition of HRP (5 units/ml) in the reaction mixture containing SsnB (10 μM)+H2DCFDA dye (25 μM), the OD value increased by 2% in the first 240 sec and further increased by 8% after 15 min compared to H2DCFDA+HRP reaction, indicating the increased oxidation of H2DCFDA to the fluorescent compound.

Experiment [6] has as its system intracellular GSH in neuroblastoma cells. The experiment is described as follows: Cellular glutathione level, luminescence GSH-Glo assay. It counts as cell-based, human. The procedure: Cells treated with SsnB or DMSO were washed and re-suspended in PBS and the intracellular GSH level was measured by luminescence based GSH-Glo glutathione assay kit (Promega, Madison, Wis.) following manufacturer's protocol. The luminescence was monitored in a luminometer (Promega Biosystems, Sunnyvale, Calif.).
At the cellular level, reduced glutathione (GSH) protects cells from oxidative damage resulted from increased superoxides, peroxides and free radicals. Since SsnB induces oxidative stress, SsnB affect of intracellular levels of GSH in neuroblastoma cells was examined. After treatment with SsnB for 2 days (SH-SY5Y and IMR-32), 3 days (NGP cells) or 4 days (SKNF-1 and SK-N-BE(2) cells), the cellular GSH level was measured by luminescence based glutathione assay kit.

Experiment [7] concerns neuroblastoma cell lines. As to the kind of experiment: Cell cycle analysis by flow cytometry, all lines together. It counts as cell-based, human. The procedure: as §1, §2
In general terms: A flow cytometer gives signals particle by particle.

On to `O=c1occ2c3c(ccc(O)c13)Oc1ccc(O)cc1-2` [SsnB, 8,5′-dihydroxy-4-phenyl-5,2′-oxidoisocoumarin], for which the “number of carboxy-DCF positive cells vs DMSO” value in experiment [1] is “significantly increased”. Moreover, the G2/M phase cells turned out to be 23.98% in experiment [2], 23.45% in experiment [3] and 27.15% in experiment [4]. The results for the “increase of OD value vs H2DCFDA+HRP reaction” value in experiment [5] (after 15 min) and in experiment [5] (first 240 sec) were 8% and 2%, respectively. Besides, the “optical density at 540 nm” value in experiment [5] (SsnB 10 μM + H2DCFDA 25 μM, without HRP) is given as “remained constant”. Moreover, the “cellular GSH level” value in experiment [6] (SsnB 1 μM) is given as “slightly higher or equal to control levels”; in experiment [6] (SsnB 10 μM, 2, 3 or 4 days depending on line, p<0.05) it was ~40 % of control. Moreover, the “cell cycle progression vs DMSO” value in experiment [7] (SsnB 1 μM) was “did not affect cell cycle progression”. Also, the G0/G1 phase cells entry in experiment [7] (SsnB 10 μM) was “decrease in G0/G1 phase cells”.

(Values after US9446019B2, “Sparstolonin B based pharmaceutical agent for neuroblastoma treatment” (University of South Carolina, priority 2013, dated 2016).)
